Reference: US11000033B2, “Ketone or oxime compound, and herbicide” (NISSAN CHEMICAL CORPORATION, priority 2014, dated 2021)

Assays:
Format in all cases: in vivo
[1] = test system: Echinochloa oryzacola Vasing.; assay: Test Example 2: herbicidal activity, application during weed generation in submerged conditions (symbol A); settings: Table 23; application herbicide amount 320 g/ha; grade 0-5 by criteria of Test Example 1
Protocol: (§1) Herbicidal Activity Test by Application During Weed Generation in Submerged Conditions
(§2) After alluvial soil was placed into 1/10000 are of Wagner pot, water was poured and mixed to form a submerged condition having a water depth of 4 cm. Seeds of Echinochloa oryzacola Vasing., Scirpus juncoides, and Monochoria vaginalis were sowed in a mixed manner in the above pot and the pot was placed in the greenhouse of 25° C. to 30° C. to grow the plants. When Echinochloa oryzacola Vasing., Scirpus juncoides, and Monochoria vaginalis were grown to one leaf stage to two leaf stage, the emulsion agent of the compound of the present invention prepared in accordance with Formulation Example 2 was diluted with water so as to be a predetermined herbicide amount and the diluted emulsion agent was applied to the surface of the water. 3 weeks later from the herbicide application, the effect to each plant was investigated in accordance with the criteria of Test Example 1.

[2] = test system: Scirpus juncoides; assay: Test Example 2: herbicidal activity, application during weed generation in submerged conditions (symbol B); settings: Table 23; application herbicide amount 320 g/ha; grade 0-5 by criteria of Test Example 1
Protocol: as §1, §2

[3] = test system: Monochoria vaginalis; assay: Test Example 2: herbicidal activity, application during weed generation in submerged conditions (symbol C); settings: Table 23; application herbicide amount 320 g/ha; grade 0-5 by criteria of Test Example 1
Protocol: as §1, §2

[4] = test system: Echinochloa crus-galli var. crus-galli; assay: Test Example 3: herbicidal effect by foliage application, Wagner pot (symbol H); settings: application herbicide amount 320 g/ha
Summary of the method: (§3)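 Alluvial soil was flooded to a depth of 0.1–0.5 cm, seeded with the weeds and rice, and kept in a greenhouse at 25–30 °C. After 14 days of growth, the foliage received a small-sprayer application of emulsion diluted to the intended rate; injury was rated at 3 weeks.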

[5] = test system: Leptochloa chinensis; assay: Test Example 3: herbicidal effect by foliage application, Wagner pot (symbol D); settings: application herbicide amount 320 g/ha
Summary of the method: as §3

[6] = test system: Cyperus difformis; assay: Test Example 3: herbicidal effect by foliage application, Wagner pot (symbol E); settings: application herbicide amount 320 g/ha
Summary of the method: as §3

[7] = test system: directly sowed rice plant; assay: Test Example 3: effect on crop by foliage application, Wagner pot (symbol b); settings: application herbicide amount 320 g/ha
Summary of the method: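 Alluvial soil in a 1/10000-are Wagner pot was flooded to a water depth of 0.1–0.5 cm. Echinochloa crus-galli var. crus-galli, Leptochloa chinensis, Cyperus difformis and rice were sown into it and grown in a greenhouse at 25–30 °C.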

[8] = test system: Digitaria ciliaris; assay: Test Example 5: herbicidal effect by foliage application, plastic box (symbol F); settings: 320 g/ha, 3 weeks after application
Summary of the method: (§4)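 Seeds were sown in sterilized diluvial soil, covered with about 1.5 cm of soil and grown 14 days in a greenhouse at 25° C. to 30° C. An emulsifiable formulation diluted in water to a set rate was sprayed over foliage, and injury was scored 3 weeks later.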

[9] = test system: Setaria viridis; assay: Test Example 5: herbicidal effect by foliage application, plastic box (symbol G); settings: 320 g/ha, 3 weeks after application
Summary of the method: as §4

[10] = test system: Echinochloa crus-galli var. crus-galli; assay: Test Example 5: herbicidal effect by foliage application, plastic box (symbol H); settings: 320 g/ha, 3 weeks after application
Summary of the method: as §4

[11] = test system: Avena fatua; assay: Test Example 5: herbicidal effect by foliage application, plastic box (symbol I); settings: 320 g/ha, 3 weeks after application
Summary of the method: as §4

[12] = test system: Alopecurus myosuroides; assay: Test Example 5: herbicidal effect by foliage application, plastic box (symbol J); settings: 320 g/ha, 3 weeks after application
Summary of the method: as §4

[13] = test system: Lolium multiflorum Lam.; assay: Test Example 5: herbicidal effect by foliage application, plastic box (symbol K); settings: 320 g/ha, 3 weeks after application
Summary of the method: as §4

[14] = test system: Apera spica-venti; assay: Test Example 5: herbicidal effect by foliage application, plastic box (symbol L); settings: 320 g/ha, 3 weeks after application
Summary of the method: as §4

[15] = test system: Abutilon theophrasti; assay: Test Example 5: herbicidal effect by foliage application, plastic box (symbol M); settings: 320 g/ha, 3 weeks after application
Summary of the method: as §4

[16] = test system: Amaranthus retroflexus; assay: Test Example 5: herbicidal effect by foliage application, plastic box (symbol N); settings: 320 g/ha, 3 weeks after application
Summary of the method: as §4

[17] = test system: Chenopodium album; assay: Test Example 5: herbicidal effect by foliage application, plastic box (symbol O); settings: 320 g/ha, 3 weeks after application
Summary of the method: as §4

[18] = test system: Stellaria media; assay: Test Example 5: herbicidal effect by foliage application, plastic box (symbol P); settings: 320 g/ha, 3 weeks after application
Summary of the method: as §4

[19] = test system: Galium spurium; assay: Test Example 5: herbicidal effect by foliage application, plastic box (symbol Q); settings: 320 g/ha, 3 weeks after application
Summary of the method: as §4

[20] = test system: Veronica persica; assay: Test Example 5: herbicidal effect by foliage application, plastic box (symbol R); settings: 320 g/ha, 3 weeks after application
Summary of the method: as §4

[21] = test system: corn; assay: Test Example 5: effect on crop by foliage application, plastic box (symbol c); settings: 320 g/ha, 3 weeks after application
Summary of the method: (§5)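 Crop seed is sown alongside grass and broadleaf weed species in spots in sterilized diluvial soil, then covered to a depth of about 1.5 cm. Plants grow in a greenhouse kept at 25° C. to 30° C.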

[22] = test system: soybean; assay: Test Example 5: effect on crop by foliage application, plastic box (symbol d); settings: 320 g/ha, 3 weeks after application
Summary of the method: as §5

[23] = test system: rice plant; assay: Test Example 5: effect on crop by foliage application, plastic box (symbol b); settings: 320 g/ha, 3 weeks after application
Summary of the method: as §5

[24] = test system: wheat; assay: Test Example 5: effect on crop by foliage application, plastic box (symbol e); settings: 320 g/ha, 3 weeks after application
Summary of the method: as §5

[25] = test system: beet; assay: Test Example 5: effect on crop by foliage application, plastic box (symbol f); settings: 320 g/ha, 3 weeks after application
Summary of the method: as §5

[26] = test system: rapeseed; assay: Test Example 5: effect on crop by foliage application, plastic box (symbol g); settings: 320 g/ha, 3 weeks after application
Summary of the method: as §5

Row | Compound | Herbicidal effect grade, A: Echinochloa oryzacola Vasing. [1] | Herbicidal effect grade, B: Scirpus juncoides [2] | Herbicidal effect grade, C: Monochoria vaginalis [3] | F: Digitaria ciliaris, herbicidal effect grade [8] | G: Setaria viridis, herbicidal effect grade [9] | H: Echinochloa crus-galli var. crus-galli, herbicidal effect grade [10] | I: Avena fatua, herbicidal effect grade [11] | J: Alopecurus myosuroides, herbicidal effect grade [12] | K: Lolium multiflorum Lam., herbicidal effect grade [13] | L: Apera spica-venti, herbicidal effect grade [14] | M: Abutilon theophrasti, herbicidal effect grade [15] | N: Amaranthus retroflexus, herbicidal effect grade [16] | O: Chenopodium album, herbicidal effect grade [17] | P: Stellaria media, herbicidal effect grade [18] | Q: Galium spurium, herbicidal effect grade [19] | R: Veronica persica, herbicidal effect grade [20] | c: corn, effect on crop grade [21] | d: soybean, effect on crop grade [22] | b: directly sowed rice plant, effect on crop grade [23] | e: wheat, effect on crop grade [24] | further results
1 | CON=C(C)CC1CC(O)=C(c2c(C)cc(C#CC(C)(C)O)cc2C)C1=O (mixture of isomers) [6-036] | 3 (Herbicidal ratio of 40% or higher and lower than 70%) | 0 (Herbicidal ratio of 5% or lower (almost no effect)) | 0 (Herbicidal ratio of 5% or lower (almost no effect)) | 4 (Herbicidal ratio of 70% or higher and lower than 90%) | 4 (Herbicidal ratio of 70% or higher and lower than 90%) | 5 (Herbicidal ratio of 90% or more (almost completely withered)) | 3 (Herbicidal ratio of 40% or higher and lower than 70%) | 3 (Herbicidal ratio of 40% or higher and lower than 70%) | 5 (Herbicidal ratio of 90% or more (almost completely withered)) | 3 (Herbicidal ratio of 40% or higher and lower than 70%) | 0 (Herbicidal ratio of 5% or lower (almost no effect)) | 0 (Herbicidal ratio of 5% or lower (almost no effect)) | 0 (Herbicidal ratio of 5% or lower (almost no effect)) | 1 (Herbicidal ratio of 5% or higher and lower than 20%) | 0 (Herbicidal ratio of 5% or lower (almost no effect)) | 3 (Herbicidal ratio of 40% or higher and lower than 70%) | 4 (Herbicidal ratio of 70% or higher and lower than 90%) | 0 (Herbicidal ratio of 5% or lower (almost no effect)) | 4 (Herbicidal ratio of 70% or higher and lower than 90%) | 0 (Herbicidal ratio of 5% or lower (almost no effect)) | herbicidal effect on H (Echinochloa crus-galli var. crus-galli), grade 0-5 [4]: 4 (Herbicidal ratio of 70% or higher and lower than 90%); herbicidal effect on D (Leptochloa chinensis), grade 0-5 [5]: 5 (Herbicidal ratio of 90% or more (almost completely withered)); herbicidal effect on E, grade 0-5 [6]: 3 (Herbicidal ratio of 40% or higher and lower than 70%); effect on crop b (directly sowed rice plant), grade 0-5 [7]: 4 (Herbicidal ratio of 70% or higher and lower than 90%); f: beet, effect on crop grade [25]: 0 (Herbicidal ratio of 5% or lower (almost no effect)); g: rapeseed, effect on crop grade [26]: 3 (Herbicidal ratio of 40% or higher and lower than 70%)
2 | COc1cc(Br)cc(C)c1C1=C(O)CC(C(C)C(C)=O)C1=O (stereo not shown) [7-031] | 0 (Herbicidal ratio of 5% or lower (almost no effect)) | 1 (Herbicidal ratio of 5% or higher and lower than 20%) | 2 (Herbicidal ratio of 20% or higher and lower than 40%) | 4 (Herbicidal ratio of 70% or higher and lower than 90%) | 5 (Herbicidal ratio of 90% or more (almost completely withered)) | 5 (Herbicidal ratio of 90% or more (almost completely withered)) | 3 (Herbicidal ratio of 40% or higher and lower than 70%) | 3 (Herbicidal ratio of 40% or higher and lower than 70%) | 5 (Herbicidal ratio of 90% or more (almost completely withered)) | 5 (Herbicidal ratio of 90% or more (almost completely withered)) | 0 (Herbicidal ratio of 5% or lower (almost no effect)) | 0 (Herbicidal ratio of 5% or lower (almost no effect)) | 0 (Herbicidal ratio of 5% or lower (almost no effect)) | 0 (Herbicidal ratio of 5% or lower (almost no effect)) | 0 (Herbicidal ratio of 5% or lower (almost no effect)) | 0 (Herbicidal ratio of 5% or lower (almost no effect)) | 1 (Herbicidal ratio of 5% or higher and lower than 20%) | 0 (Herbicidal ratio of 5% or lower (almost no effect)) | 4 (Herbicidal ratio of 70% or higher and lower than 90%) | 0 (Herbicidal ratio of 5% or lower (almost no effect)) | H (Echinochloa crus-galli var. crus-galli) herbicidal effect grade ([4]; Table 24): 4 (Herbicidal ratio of 70% or higher and lower than 90%); D (Leptochloa chinensis) herbicidal effect grade ([5]; Table 24): 5 (Herbicidal ratio of 90% or more (almost completely withered)); E herbicidal effect grade ([6]; Table 24): 3 (Herbicidal ratio of 40% or higher and lower than 70%); b (directly sowed rice plant) effect on crop grade ([7]; Table 24): 5 (Herbicidal ratio of 90% or more (almost completely withered)); f: beet, effect on crop grade [25]: 0 (Herbicidal ratio of 5% or lower (almost no effect)); g: rapeseed, effect on crop grade [26]: 0 (Herbicidal ratio of 5% or lower (almost no effect))
